One series deals with HT29. Put plainly: Cytotoxicity in vitro in the presence and absence of elastase (MTT assay). It counts as cell-based. The note with it: HT29 cells, 72 h incubation. Put shortly: (§1)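 Readout: MTT formazan absorbance at 570 nm after 4 h MTT and overnight detergent lysis. Compound exposure was 72 h at 37 °C, 10^−5–10^−13 M, in parallel sets with or without 10 nM elastase.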
For orientation: Tetrazolium assays rely on reduction of a dye to a coloured formazan, in cell work by metabolically active cells.

Another series deals with NCI-H292. The series is described as above. Format: cell-based. The note with it: NCI-H292 cells, 72 h incubation. Summed up: as §1
Another series deals with 786-O. The series is described as above. Format: cell-based. The note with it: 786-O cells, 72 h incubation. Put shortly: as §1
In a further series the test system is SUM149PT. Described as above. Format: cell-based. Conditions: SUM149PT cells, 72 h incubation. Summed up: as §1
The nature of series [1]: Pharmacokinetics in rat after intravenous administration. Format: in vivo. The note with it: plasma, male rats, intravenous bolus 0.5 mg/kg. The method, then:
Male rats (n=3) were given an intravenous 0.5 mg/kg bolus dose of test article dissolved in plasma with 1% DMSO and 2% ethanol. Serial blood samples were collected up to 24 hours post-dose. Plasma was harvested from blood samples and stored frozen until sample analysis. Test article plasma concentrations were analyzed by LC/MS/MS. Pharmacokinetic parameters were calculated using non-compartmental analysis.

Another series is described as follows: in vitro. The note with it: human, Caco-2. The method, then: (§2) Caco-2: The cell permeability of a substance can be investigated by means of in vitro testing in a flux assay using Caco-2 cells [M. D. Troutman and D. R. Thakker, Pharm. Res. 20 (8), 1210-1224 (2003)]. For this purpose, the cells were cultured for 15-16 days on 24-well filter plates. For the determination of permeation, the respective test substance was applied in a HEPES buffer to the cells either apically (A) or basally (B) and incubated for 2 hours. After 0 hours and after 2 hours, samples were taken from the cis and trans compartments. The samples were separated by HPLC (Agilent 1200, Böblingen, Germany) using reverse phase columns. The HPLC system was coupled via a Turbo Ion Spray Interface to a Triple Quadropol mass spectrometer API 4000 (AB SCIEX Deutschland GmbH, Darmstadt, Germany). The permeability was evaluated on the basis of a Papp value, which was calculated using the formula published by Schwab et al. [D. Schwab et al., J. Med. Chem. 46, 1716-1725 (2003)]. A substance was classified as actively transported when the ratio of Papp (B-A) to Papp (A-B) (efflux ratio) was >2 or <0.5. […] In Table 2, reference compounds are provided for comparison.

The test system of another series is Caco-2 cells. Put plainly: Caco-2 flux assay for cellular permeability. The note with it: for Caco-2 Flux Papp A-B [nm/s]: Caco-2 cells, apical to basal, 2 hours incubation; for Caco-2 Flux Efflux ratio: ratio Papp (B-A) to Papp (A-B), actively transported when >2 or <0.5, 0.5-2 not actively transported. The method, then:
as §2
Background: Passage across Caco-2 layers is used to estimate intestinal permeability.

Where [2] appears, read: compound alone, read-out: IC50 without neutrophil elastase.
Where [3] appears, read: with 10 nM elastase (NE), read-out: IC50 with neutrophil elastase.

Like-named read-outs stand apart in the source and are kept apart here. Bounds are passed on as bounds.

What is called IC50 is the concentration that inhibits the measured activity by half. The term AUC denotes the area under the concentration-time curve, a measure of exposure. In general, half-life refers to the time needed for the level to fall by half in the phase considered. In the case of `CCCNC(=O)Nc1cccc(S(=O)(=O)Nc2cccc([C@@H](CC(=O)O)NC(=O)Nc3ccc(NC(=O)NCCOCCOCCOCCC(=O)NCCCC[C@H](NC(=O)CCOCCOCCOCCNC(=O)Nc4ccc(NC(=O)N[C@H](CC(=O)O)c5cccc(NS(=O)(=O)c6cccc(NC(=O)NCCC)c6)c5)cc4)C(=O)NCCOCCOCCOCCC(=O)N[C@@H](CC(=O)O)C(=O)N4CCC[C@H]4C(=O)N[C@H](C(=O)O[C@@H](c4ccccc4)[C@@H](C)NC(=O)[C@H](C)[C@@H](OC)[C@@H]4CCCN4C(=O)C[C@@H](OC)[C@H]([C@@H](C)CC)N(C)C(=O)[C@@H](NC(=O)[C@@H](NC)C(C)C)C(C)C)C(C)C)cc3)c2)c1` [Compound 14], the IC50 was 100 to 999 nM with HT29 (setting [2]); 0.1 to 1 nM in the series on HT29 (setting [3]); 10 to 99 nM in the series with NCI-H292 (setting [2]); 0.1 to 1 nM in the series on NCI-H292 (setting [3]); 100 to 999 nM with 786-O (setting [2]); 1 to 9.9 nM in the series with 786-O (setting [3]). The IC50 fell in the range of 10 to 99 nM in the series on SUM149PT (setting [2]) and 0.1 to 1 nM in the series on SUM149PT (setting [3]). This compound displayed an AUC in series [1] of 100 to 500 µg·h/mL. This compound registered a half-life in series [1] of 10 to 40 h. For the same compound, in series [1] (read-out: CL plasma), the clearance fell in the range of 0.02 to 0.5 mL/min/kg. Moreover, the Vd in series [1] (read-out: VSS) lay within 0.1 to 0.3 L/kg.
Usually Papp A→B stands for how fast a substance crosses the layer from the apical side. As a reminder, the efflux ratio is a quotient of directional permeabilities that is used to spot active efflux. Regarding `CC(C)(C)[C@H](c1cc(-c2cc(F)ccc2F)cn1Cc1ccccc1)N(CCCN)C(=O)CO`, in the series “in vitro”, the Papp A→B at 2 h lay within 0.1 to 0.9 ×10⁻⁶ cm/s and the efflux ratio at 2 h was greater than 2.
Take `CC[C@@]1(O)C(=O)OCc2c1cc1n(c2=O)Cc2cc3cc4c(cc3nc2-1)OCO4` [Ref 3, 10,11-methylenedioxy-camptothecin, reference compound]: in the series with Caco-2 cells, the “Caco-2 Flux Papp A-B [nm/s]” value is “CC (CC = 100-999 nm/s)” and the “Caco-2 Flux Efflux ratio” value is on record as “B (B = not actively transported)”.
For the compound `COC(=O)[C@@H](N)CCN(C(=O)CO)[C@@H](c1cc(-c2cc(F)ccc2F)cn1Cc1ccccc1)C(C)(C)C`, in “in vitro”, the Papp A→B at 2 h lay in the range of 1 to 9.9 ×10⁻⁶ cm/s and the efflux ratio at 2 h was greater than 2.
In the same order, the values of `CCc1c2c(nc3ccccc13)-c1cc3c(c(=O)n1C2)COC(=O)[C@]3(O)CC` are 10 to 99.9 ×10⁻⁶ cm/s and 0.5 to 2.
As to “exatecan mesylate [Ref 1, reference compound]”, in the series with Caco-2 cells, the “Caco-2 Flux Papp A-B [nm/s]” value is given as “CC (CC = 100-999 nm/s)” and the “Caco-2 Flux Efflux ratio” value is “B (B = not actively transported)”.
As to `CC[C@@]1(O)C(=O)OCc2c1cc1n(c2=O)Cc2c-1nc1cc(F)c(C)c3c1c2[C@@H](NC(=O)CO)CC3` [Ref 2, DXd, reference compound], in the series on Caco-2 cells, the “Caco-2 Flux Papp A-B [nm/s]” value is reported as “AA (AA = 1-9 nm/s)” and the “Caco-2 Flux Efflux ratio” value is “A (A = actively transported)”.
In the case of `CCCNC(=O)Nc1cccc(S(=O)(=O)Nc2cccc([C@@H](CC(=O)O)NC(=O)Nc3ccc(NC(=O)NCCOCCOCCOCCC(=O)N[C@@H](CC(N)=O)C(=O)N4CCC[C@H]4C(=O)N[C@H](C(=O)N[C@@H](CCN(C(=O)CO)[C@@H](c4cc(-c5cc(F)ccc5F)cn4Cc4ccccc4)C(C)(C)C)C(=O)NC)C(C)C)cc3)c2)c1` [Compound 19, sodium N^2-(14-{4-[({(1R)-2-carboxylato-1-[3-({3-[(propylcarbamoyl)amino]benzene-1-sulfonyl}amino)phenyl]ethyl}carbamoyl)amino]anilino}-14-oxo-4,7,10-trioxa-13-azatetradecanan-1-oyl)-L-asparaginyl-L-prolyl-N-[(2S)-4-[{(1R)-1-[1-benzyl-4-(2,5-difluorophenyl)-1H-pyrrol-2-yl]-2,2-dimethylpropyl}(hydroxyacetyl)amino]-1-(methylamino)-1-oxobutan-2-yl]-L-valinamide], the 50% inhibitory concentration (IC50) in the series with HT29 (setting [2]) is greater than 1000 nM; in the series with HT29 (setting [3]), 1 to 9.9 nM; with NCI-H292 (setting [2]) it was greater than 1000 nM; in the series on NCI-H292 (setting [3]) it was 0.1 to 1 nM; in the series with 786-O (setting [2]), greater than 1000 nM; in the series with 786-O (setting [3]) it was 1 to 9.9 nM. The IC50 with SUM149PT (setting [2]) was greater than 1000 nM; in the series with SUM149PT (setting [3]), 0.1 to 1 nM.
Turning to `CCCNC(=O)Nc1cccc(S(=O)(=O)Nc2cccc([C@@H](CC(=O)O)NC(=O)Nc3ccc(NC(=O)NCCOCCOCCOCCC(=O)N[C@@H](CC(=O)O)C(=O)N4CCC[C@H]4C(=O)N[C@H](C(=O)NCCC(C)(C)C(=O)OCCCNC(=O)[C@H](Cc4ccccc4)NC(=O)[C@H](C)[C@@H](OC)[C@@H]4CCCN4C(=O)C[C@@H](OC)[C@H]([C@@H](C)CC)N(C)C(=O)[C@@H](NC(=O)[C@H](C(C)C)N(C)C)C(C)C)C(C)C)cc3)c2)c1` [Compound 31], the IC50 in the series on HT29 (setting [2]) fell in the range of 10 to 99 nM; in the series on HT29 (setting [3]), 0.1 to 1 nM; in the series with NCI-H292 (setting [2]), 10 to 99 nM; in the series on NCI-H292 (setting [3]), 0.1 to 1 nM; with 786-O (setting [2]), 100 to 999 nM; with 786-O (setting [3]) it was 10 to 99 nM. Besides, the IC50 with SUM149PT (setting [2]) lay within 10 to 99 nM; with SUM149PT (setting [3]), 0.1 to 1 nM.
On to “N2-(14-{4-[({(1R)-2-carboxy-1-[3-({3-[(propylcarbamoyl)amino]benzene-1-sulfonyl}amino)phenyl]ethyl}carbamoyl)amino]anilino}-14-oxo-4,7,10-trioxa-13-azatetradecanan-1-oyl}-L-asparaginyl-L-prolyl-N-{3-[{(1R)-1-[1-benzyl-4-(2,5-difluorophenyl)-1H-pyrrol-2-yl]-2,2-dimethylpropyl}(hydroxyacetyl)amino]propyl}-L-alaninamide [Compound 15]”, for which the IC50 with HT29 (setting [2]) is 100 to 999 nM; in the series on HT29 (setting [3]), 1 to 9.9 nM; with NCI-H292 (setting [2]), 100 to 999 nM; with NCI-H292 (setting [3]) it was 10 to 99 nM; in the series on 786-O (setting [2]), greater than 1000 nM; in the series on 786-O (setting [3]), 10 to 99 nM. Moreover, the IC50 with SUM149PT (setting [2]) was in the range of 10 to 99 nM; in the series with SUM149PT (setting [3]), 1 to 9.9 nM.
For the compound `CC(C)(C)[C@H](c1cc(-c2cc(F)ccc2F)cn1Cc1ccccc1)N(CCC(N)C(F)F)C(=O)CO` (some centres unmarked), in the series “in vitro”, the Papp A→B at 2 h was in the range of 10 to 99.9 ×10⁻⁶ cm/s and the efflux ratio at 2 h was 0.5 to 2.

For the origin of these results see patent US20260183405A1, “SMALL MOLECULE-DRUG-CONJUGATES CLEAVABLE IN A TUMOR MICROENVIRONMENT” (priority 2022, published 2026).
